This note sets out measurements from US7321046B2, “Analogs of dictyostatin, intermediates therefor and methods of synthesis thereof” (University of Pittsburgh, priority 2002, dated 2008).

SMILES strings stand for the structures. Where two headings read alike, the source gives them in different places.

For data set [1] the following is noted: ester bond, toluene, 2 steps.
Data set [2] has as its system human ovarian carcinoma cells (1A9). Description: Antiproliferative assay (GI50, MTS). It is filed as cell-based. As to the method: (§1) Representative analogs were examined for their antiproliferative activities against human ovarian carcinoma 1A9 cells and their paclitaxel-resistant mutants, 1A9/Ptx10 and 1A9/Ptx22.
[…] Cells were maintained in RPMI medium with 10% FBS in it, plated in tissue culture plates, and allowed to grow for 48-72 h before transferring them into 96-well plates. Cells were allowed to attach and grow for 48 h in 96-well plates after which they were treated with either control (DMSO) or drug in triplicate/quadruplicate. Cells were incubated with the compounds for 72 h. Cells were treated with MTS reagent before reading the plate in a Dynamax plate reader for determining the cell number. The fifty percent growth inhibition values (GI50 values) were calculated for the compounds against all the three cell lines.

In a further data set the test system is T1, Bovine brain tubulin.
T1 construct: Bovine brain tubulin (10 μM) in 0.2 M MSG, 15 min at 20° C
The data set is described as follows: Pelleting assay (tubulin assembly EC50 determination). It is filed as biochemical. The conditions noted are these: tubulin 10 μM in 0.2 M MSG, 15 min at 20° C. As to the method: Dictyostatin and representative analogs were evaluated in a quantitative assay for their ability to promote tubulin polymerization. […] When the percent polymer formed was determined in the reactions, a comparison of the activities of all the analogs could be made.
The assay was performed under three different reaction conditions following the procedure reported earlier (Gapud et al., 2004). Reaction condition 1 included 0.2 M monosodium glutamate (MSG), 10 μM tubulin, 5% DMSO and varying concentrations of test agents. Reaction condition 2 included 0.8 M MSG, 400 μM GTP, 10 μM tubulin, 5% DMSO, and varying concentrations of test agents. Reaction condition 3 had 0.6 M MSG, 200 μM GTP, and 10 μM tubulin, and 5% DMSO, and varying concentrations of the test agents. The experimental protocol for all the three reaction conditions was the following. The reaction mixtures were incubated at room temperature (20-22° C.) for 15 min and spun for 10 min at 14,000 rpm in an Eppendorf microtube centrifuge. Aliquots of the supernatants were removed and assayed for protein content by the method of Lowry.

In data set [3] the test system is 1A9/Ptx10 (Phe270 −> Val) β-tubulin mutant cells. Description: Antiproliferative assay (GI50, MTS), paclitaxel-resistant clone. It counts as cell-based, human. To be noted: for fold-resistance: 1A9/Ptx10 versus parental 1A9. As for the experimental part: as §1
(§2) The effects of dictyostatin and its analogs on growth inhibition of parental ([…]) and paclitaxel-resistant (1A9/Ptx10 and Ptx22) ovarian adenocarcinoma cell lines were evaluated following the antiproliferative assay protocol as described earlier (Minguez et al., 2003; Choy et al., 2003; Lazo et al., 2001). Cells were maintained in RPMI medium with 10% FBS in it, plated in tissue culture plates, and allowed to grow for 48-72 h before transferring them into 96-well plates. Cells were allowed to attach and grow for 48 h in 96-well plates after which they were treated with either control (DMSO) or drug in triplicate/quadruplicate. Cells were incubated with the compounds for 72 h. Cells were treated with MTS reagent before reading the plate in a Dynamax plate reader for determining the cell number. The fifty percent growth inhibition values (GI50 values) were calculated for the compounds against all the three cell lines.

The test system of data set [4] is 1A9/Ptx22 (Ala364 −> Thr) β-tubulin mutant cells. Described as above. It is filed as cell-based, human. The conditions noted are these: for fold-resistance: 1A9/Ptx22 versus parental 1A9. As for the experimental part:
as §1, §2

The test system of data set [5] is microtubules (tubulin polymer). Description: Radiolabeled ligand binding assays. To be noted: test agent 4 μM; radiolabel 4.0 μM; 37° C. As to the method:
The abilities of test agents to inhibit the binding of radiolabeled forms of the microtubule stabilizers paclitaxel, discodermolide and epothilone B from tubulin polymer were determined.
[^3H]Paclitaxel, [^3H]discodermolide and [^14C]epothilone B solutions were prepared as 125 μM stock solutions in 50% DMSO. Radiolabeled compound (final concentration, 4.0 μM) and test agents at final concentrations noted in the text and tables were mixed in 50 μL of 4:1 (v/v) 0.75 M aqueous MSG/DMSO and warmed to 37° C. Meanwhile, a reaction mixture containing 0.75 M MSG, 2.5 μM tubulin, and 25 μM ddGTP was prepared and incubated at 37° C. for 30 min to form microtubuless. A 200 μL aliquot of the microtubule mixture was added to the drug mixtures, and incubation continued for 30 min at 37° C. Reaction mixtures were centrifuged in an Eppendorf 5417C centrifuge at 14,000 rpm for 20 min at room temperature. Radiolabel in the supernatants (100 μL) was determined by scintillation spectrometry.

The next data set relates to HeLa cells. Description: Multiparameter fluorescence high information content analysis of cellular effects. To be noted: 24 h treatment. It is filed as cell-based. As to the method: HeLa cells were plated on collagen-coated 384-well microtiter plates, allowed to attach, then treated for 24 h with test agents. Test agent concentrations began at 1 μM, and two-fold dilutions were made to levels below 1 nM. After the treatment period, the cells were fixed with formalin and their chromatin stained with Hoechst 33342. Cells were permeabilized and treated with primary antibodies for α-tubulin and phosphohistone H3, and then with fluorophore-labeled secondary antibodies. The three fluorescent channels were then examined on an ArrayScan II, which gives quantitative pixel distribution and density information in each channel on a per cell basis.
HeLa cells growing at log phase were trypsinized and plated in 40 μL at a density of 7,000-8,000 cells per well in calf skin collagen I-coated 384-well plates (Falcon #3962; Fisher Scientific). Cells were exposed to test agents or 0.5% DMSO within 2-8 h of plating. Concentrated DMSO stock solutions of all test agents were diluted into solutions of HBSS medium plus 10% FBS and added to the microplate wells (10 μL per well), using an automated liquid handling system (Biomek® 2000; Beckman-Coulter, Inc.) to provide a serial 2-fold dilution of each test agent. The cells were incubated in the presence of test agents for 24 h. At the end of the incubation, the medium was removed and replaced with HBSS containing 4% formaldehyde and 10 μg/mL Hoechst 33342 (25 μL/well) to fix the cells and fluorescently label their chromatin. After incubation at room temperature for 20-30 min, the solution was removed from each well and replaced with HBSS (100 μL/well). Further reagent additions were made to the microplates using the Biomek 2000. After removing the HBSS from each well, cells were permeabilized for 5 min at room temperature with 0.5% (w/w) Triton X-100 in HBSS (10 μL/well). This step extracts a fraction of the soluble cellular components, including soluble tubulin. The wells were washed with HBSS (100 μL/well), followed by addition of a primary antibody solution containing mouse anti-α-tubulin (1:3000) and rabbit anti-phosphohistone H3 (1:500) in HBSS (10 μL/well). After 1 h at room temperature, the wells were washed with HBSS as above, followed by the addition of a secondary antibody solution containing fluorescein-5-isothiocyanate (FITC)-labeled donkey anti-mouse (1:300) and Cy3-labeled donkey anti-rabbit (1:300) antibodies diluted in HBSS (10 μL/well). After 1 h at room temperature, the wells were washed as above, and HBSS was added (100 μL/well). The plates were placed in an ArrayScan® HCS Reader with the Target Activation BioApplication Software coupled to Cellomics® Store and the vHCS™ Discovery Toolbox (Cellomics, Inc.) to analyze images. Briefly, the instrument was used to scan multiple optical fields, each with multiparameter fluorescence, within a subset of the wells of the 384-well microplate. The BioApplication software produced multiple numerical feature values, such as subcellular object intensities, shapes, and location for each cell within an optical field. […] A nuclear mask was generated from Hoechst 33342-stained nuclei, and object identification thresholds and shape parameters were set such that the algorithm identified over 90% of the nuclei in each field. Objects that touched each other or the edge of the image were excluded from the analysis. Tubulin mass was defined as the average green (FITC) pixel intensity in an area defined by the Hoechst-defined nuclear mask. This cytoplasmic area around the nucleus contains cytoskeletal components is a region from which sensitive measurements of cytoplasmic characteristics can be made.

For the molecule `C=C/C=C\[C@H](C)[C@@H]1OC(=O)/C=C\C=C\[C@@H](C)[C@@H](O[Si](C)(C)C(C)(C)C)C[C@H](O[Si](C)(C)C(C)(C)C)/C=C\[C@H](C)[C@H](O[Si](C)(C)C(C)(C)C)[C@@H](C)CCCC[C@@H](O[Si](C)(C)C(C)(C)C)[C@@H]1C`, the ring closure, yield of all isomers in data set [1] (from C=C/C=C\[C@H](C)[C@H](O)[C@@H](C)[C@@H](CCCC[C@H](C)[C@@H](O[Si](C)(C)C(C)(C)C)[C@@H](C)/C=C\[C@H](C[C@H](O[Si](C)(C)C(C)(C)C)[C@H](C)/C=C/C=C\C(=O)O)O[Si](C)(C)C(C)(C)C)O[Si](C)(C)C(C)(C)C, 2,4,6-trichlorobenzoyl chloride / Et3N / DMAP, 2.0 mM) worked out at 76%.

`C=C/C=C\[C@H](C)[C@@H]1OC(=O)/C=C\C=C\[C@H](C)[C@@H](O[Si](C)(C)C(C)(C)C)C[C@H](O[Si](C)(C)C(C)(C)C)/C=C\[C@H](C)[C@H](O[Si](C)(C)C(C)(C)C)[C@H](C)C[C@@H](C)CC[C@@H](O[Si](C)(C)C(C)(C)C)C1C` (stereo in doubt): in data set [1] (from C=C/C=C\[C@H](C)[C@H](O)[C@@H](C)[C@@H](CC[C@H](C)C[C@@H](C)[C@@H](O[Si](C)(C)C(C)(C)C)[C@@H](C)/C=C\[C@H](C[C@H](O[Si](C)(C)C(C)(C)C)[C@@H](C)/C=C/C=C\C(=O)O)O[Si](C)(C)C(C)(C)C)O[Si](C)(C)C(C)(C)C, 2,4,6-trichlorobenzoyl chloride / Et3N / DMAP, 1.94 mM, 25.0 °C, 16.0 h), the ring closure, yield of all isomers came out at 78%.

A word on the GI50: it is the concentration that inhibits growth by half. As usually defined, the EC50 is the concentration that produces a half-maximal response. As for `CC(=O)O[C@H]1C(=O)[C@@]2(C)[C@H]([C@H](OC(=O)c3ccccc3)[C@]3(O)C[C@H](OC(=O)[C@H](O)[C@@H](NC(=O)c4ccccc4)c4ccccc4)C(C)=C1C3(C)C)[C@]1(OC(C)=O)CO[C@@H]1C[C@@H]2O` [paclitaxel, reference compound], the GI50 in data set [2] (Homo sapiens, Ovarian carcinoma cell, 72 h, 1A9 parental cells, 72 h incubation, read-out: GI50 ± S.D.) was 0.71 ± 0.11 nM; in data set [3] (Homo sapiens, 1A9/ptx-10, 72 h, 1A9/Ptx10 (Phe270 −> Val), 72 h incubation, read-out: GI50 ± S.D.), 64 ± 8 nM; in data set [4] (Homo sapiens, 1A9/ptx-22, 72 h, 1A9/Ptx22 (Ala364 −> Thr), 72 h incubation, read-out: GI50 ± S.D.), 51 ± 9 nM. The “antiproliferative potency / GI50 values (in words)” value in data set [2] (Table 1 (1A9 and mutant lines)) was “subnanomolar potency”. Further, the “% Tubulin polymerized by 50 μM test agent” value in the data set with Bovine brain tubulin (50 μM test agent) was determined as 89 ± 6%. Moreover, the EC50 with Bovine brain tubulin (concentration required to polymerize 50% of tubulin, read-out: EC50 (μM) ± SD (N)) worked out at 25 ± 3 µM. Further, the fold-resistance in data set [3] was 90 fold; in data set [3] (listed as Paclitaxel), “ca. 90 fold”; in data set [4], 72 fold; in data set [4] (listed as Paclitaxel) it was approximately 70 fold. Further, in data set [5], the “Percent inhibition of radiolabel from microtubules, [3H]Discodermolide” value is reported as 6 ± 5 (3) %. Moreover, the “Percent inhibition of radiolabel from microtubules, [14C]Epothilone B” value in data set [5] was 26 ± 1 (3) %. Moreover, in the data set with HeLa cells, the “Minimum detectable cellular change, Phosphohistone H3” value is 17.5 ± 6.8 (4). In addition, the “Minimum detectable cellular change, Tubulin polymer intensity” value in the data set with HeLa cells is given as 8.0 ± 2.9 (4). The “Minimum detectable cellular change, Nuclear condensation” value in the data set with HeLa cells (Hoechst 33342) is recorded as 40.2 ± 13.9 (4).

For the molecule `C=C/C=C\[C@H](C)[C@@H]1OC(=O)/C=C\C=C\[C@@H](C)[C@@H](O[Si](C)(C)C(C)(C)C)C[C@H](O[Si](C)(C)C(C)(C)C)/C=C\[C@H](C)[C@H](O[Si](C)(C)C(C)(C)C)[C@@H](C)C[C@@H](C)CC[C@H](O[Si](C)(C)C(C)(C)C)[C@@H]1C`, the ring closure, yield of all isomers in data set [1] (from C=C/C=C\[C@H](C)[C@H](O)[C@@H](C)[C@H](CC[C@H](C)C[C@H](C)[C@@H](O[Si](C)(C)C(C)(C)C)[C@@H](C)/C=C\[C@H](C[C@H](O[Si](C)(C)C(C)(C)C)[C@H](C)/C=C/C=C\C(=O)O)O[Si](C)(C)C(C)(C)C)O[Si](C)(C)C(C)(C)C, 2,4,6-trichlorobenzoyl chloride / Et3N / DMAP (Yamaguchi), 1.74 mM, 25.0 °C, 12.0 h) was 78%.

Molecule `C=C/C=C\[C@H](C)[C@@H]1OC(=O)/C=C\C=C\[C@@H](C)[C@@H](O[Si](C)(C)C(C)(C)C)C[C@H](O[Si](C)(C)C(C)(C)C)/C=C\[C@H](C)[C@H](O[Si](C)(C)C(C)(C)C)[C@@H](C)C[C@@H](C)CC[C@@H](O[Si](C)(C)C(C)(C)C)[C@@H]1C` showed a ring closure, yield of all isomers in data set [1] (from C=C/C=C\[C@H](C)[C@H](O)[C@@H](C)[C@@H](CC[C@H](C)C[C@H](C)[C@@H](O[Si](C)(C)C(C)(C)C)[C@@H](C)/C=C\[C@H](C[C@H](O[Si](C)(C)C(C)(C)C)[C@H](C)/C=C/C=C\C(=O)O)O[Si](C)(C)C(C)(C)C)O[Si](C)(C)C(C)(C)C, 2,4,6-trichlorobenzoyl chloride / Et3N / DMAP (Yamaguchi), 1.71 mM, 25.0 °C, 12.0 h) of 78%.
